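All cell lines were grown in 96-well plates and treated with compound for 48 hours. TGI: total growth inhibition.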
What was measured:
Assay in all cases: NCI-60 cell line screen, 48 h
NCI-H460 lung = test system: NCI-H460 lung
OVCAR-3 ovarian = test system: OVCAR-3 ovarian
SK-MEL-2 melanoma = test system: SK-MEL-2 melanoma
UACC-257 melanoma = test system: UACC-257 melanoma
ACHN renal = test system: ACHN renal
SR leukemia = test system: SR leukemia
MOLT-4 leukemia = test system: MOLT-4 leukemia
SNB-75 CNS = test system: SNB-75 CNS
U251 CNS = test system: U251 CNS
DLD-1 colon = test system: DLD-1 colon
A549 NSCLC = test system: A549 NSCLC
HT29 colon = test system: HT29 colon
RPMI-8226 leukemia = test system: RPMI-8226 leukemia
NCI-H522 lung = test system: NCI-H522 lung
OVCAR-5 ovarian = test system: OVCAR-5 ovarian
OVCAR-4 ovarian = test system: OVCAR-4 ovarian
786-0 renal = test system: 786-0 renal
COLO 205 colon = test system: COLO 205 colon
OVCAR-8 ovarian = test system: OVCAR-8 ovarian
EKVX NSCLC = test system: EKVX NSCLC
M19-MEL melanoma = test system: M19-MEL melanoma
HCT-15 colon = test system: HCT-15 colon
K-562 leukemia = test system: K-562 leukemia
SF-539 CNS = test system: SF-539 CNS
NCI-H226 lung = test system: NCI-H226 lung
DMS 114 small cell lung = test system: DMS 114 small cell lung
MALME-3M melanoma = test system: MALME-3M melanoma
SF-295 CNS = test system: SF-295 CNS
TK-10 renal = test system: TK-10 renal
A498 renal = test system: A498 renal
HOP-92 NSCLC = test system: HOP-92 NSCLC
LOX IMVI melanoma = test system: LOX IMVI melanoma
NCI-H23 lung = test system: NCI-H23 lung
SN12C renal = test system: SN12C renal
IGROV1 ovarian = test system: IGROV1 ovarian
HOP-18 NSCLC = test system: HOP-18 NSCLC
KM20L2 colon = test system: KM20L2 colon
UO-31 renal = test system: UO-31 renal
SK-MEL-28 melanoma = test system: SK-MEL-28 melanoma
SW-620 colon = test system: SW-620 colon
LXFL 529 NSCLC = test system: LXFL 529 NSCLC
XF 498 CNS = test system: XF 498 CNS
HOP-62 NSCLC = test system: HOP-62 NSCLC
HCT-116 colon = test system: HCT-116 colon
SNB-19 CNS = test system: SNB-19 CNS
HL-60(TB) leukemia = test system: HL-60(TB) leukemia
RXF 393 renal = test system: RXF 393 renal
KM12 colon = test system: KM12 colon
SF-268 CNS = test system: SF-268 CNS
HCC-2998 colon = test system: HCC-2998 colon

Measured: TGI

CCOC(=O)C1S/C(=N\C(=N)N[N+](=O)[O-])N=C1C (stereo not given)
> 100 µM: all assays above

Source: PubChem BioAssay (NCI)
